Assay results published in patent publication US20260217712A1, “SOLID STATE FORMS OF MNK INHIBITORS” (4E Therapeutics, Inc., priority 2023, published 2026).
Values after ≈ are worked out from the molar mass of the structure shown. “Also recorded” adds a separate entry of the source. Where two headings read alike, the source gives them in different places.

Experiments:
Format in all cases: physicochemical
[1] = Static storage at 40° C./75% RH, XRPD and HPLC post storage; details: 7 days, listed as 34-1
[2] = Competitive slurries of Pattern 3 and Pattern 11, XRPD
Protocol: A solid mixture of Structure (I) Pattern 3 (from Lot B, 300 mg) and Pattern 11 (Sample 35-1, 300 mg) was mixed for 3 hours using a turbula mixer.
The solid mixture (30 mg) was suspended in solvent (dried with molecular sieves, 600 μL, 20 vol) and either stirred in the fridge, shaken at RT or 55° C. After 7 days, an aliquot of each suspension was analyzed by XRPD. Samples that were still a mixture of forms were placed back into fridge/shakers for a further 10 days and re-analyzed (results shown in Table 36).
Competitive slurry experiments at 55° C., along with one at 5° C., were repeated using a saturated solution as the solvent mixture to minimize dissolution that may have occurred at temperatures other than room temperature.
A saturated solution of THF/Water (9:1) (5 mL) with Structure (I) (from Lot B) was equilibrated at 55° C. overnight in a shaker. The solution was filtered using 0.45 μm nylon filter before use.
A solid mixture of Pattern 3 and Pattern 11 (30 mg) was suspended in the saturated solution (600 μL, 20 vol) and either stirred in the fridge (5° C.) or shaken at 55° C. After 1 day, aliquots of the suspensions were analyzed by XRPD. Both samples were placed back into fridge/shaker. After a total of 11 days, the samples were removed from fridge/shaker. Sample 38-2 was filtered before XRPD, Sample 38-1 was pipetted onto the XRPD holder and allowed to dry before analysis (solid passed through filter).

[3] = Drying / standing under ambient conditions, XRPD; details: ambient conditions
Protocol: Structure (I) (Sample 28-2, 30 mg, Poorly Crystalline Pattern 3) was wetted with solvent (300 μL, 10 vol) according to Table 30 and put into a shaker at 50° C. for 6 days. The suspensions were isolated using filter cartridges and positive pressure. A XRPD pattern was collected for each sample. […] This characterization is presented and discussed in Examples detailed herein. (see, e.g., FIG. 75)

[4] = Static storage at 40° C./75% RH, XRPD and HPLC post storage
How it was run: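 Solids isolated as counter-ion salts of the compound were stored statically at 40° C./75% RH and then re-examined by XRPD for solid-form changes. Chemical purity after storage was checked on an Agilent HP1100/Infinity II 1260 series HPLC system fitted with a diode array detector and running OpenLAB software.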

[5] = Static storage at 25° C./97% RH, XRPD and HPLC post storage; details: 10 days
[6] = Drying / standing under ambient conditions, XRPD; details: listed as 34-1
[7] = Thermodynamic solubility in simulated media and buffers; details: for solubility at 24 h: 25 °C, thermodynamic from solid
Protocol: The thermodynamic solubility for Pattern 11 was determined in 3 simulated media and two buffers. […]

[8] = Gravimetric vapor sorption (GVS) and XRPD post-GVS; details: for GVS reversible water uptake 0-90% RH: 25° C.; for Post GVS XRPD form: after double cycle GVS
Protocol: Sorption isotherms were obtained using a SMS DVS Intrinsic moisture sorption analyzer, controlled by DVS Intrinsic Control software. The sample temperature was maintained at 25° C. by the instrument controls. The humidity was controlled by mixing streams of dry and wet nitrogen, with a total flow rate of 200 mL/min. The relative humidity was measured by a calibrated Rotronic probe (dynamic range of 1.0-100% RH), located near the sample. The weight change, (mass relaxation) of the sample as a function of % RH was constantly monitored by a microbalance (accuracy±0.005 mg).
Typically, 5-30 mg of sample was placed in a tared mesh stainless steel basket under ambient conditions. The sample was loaded and unloaded at 40% RH and 25° C. (typical room conditions). A moisture sorption isotherm was performed as outlined below (2 scans per complete cycle). The standard isotherm was performed at 25° C. at 10% RH intervals over a 0-90% RH range. Typically, a double cycle (4 scans) was carried out. Data analysis was carried out within Microsoft Excel using the DVS Analysis Suite.
Sorption isotherms were obtained using a Hiden IGASorp moisture sorption analyser, controlled by Isochema HISorp software. The sample temperature was maintained at 25° C. by a Grant LT ecocool 150 re-circulating water bath. The humidity was controlled by mixing streams of dry and wet nitrogen, with a total flow rate of 250 ml·min-1. The relative humidity was measured by a calibrated Vaisala RH probe (dynamic range of 0-95% RH), located near the sample. The weight change, (mass relaxation) of the sample as a function of % RH was constantly monitored by the microbalance (accuracy±0.001 mg).
Typically, 20-30 mg of sample was placed in a tared mesh stainless steel basket under ambient conditions. The sample was loaded and unloaded at 40% RH and 25° C. (typical room conditions). A moisture sorption isotherm was performed as outlined below (2 scans giving 1 complete cycle). The standard isotherm was performed at 25° C. at 10% RH intervals over a 0-90% RH range. Typically, a double cycle (4 scans) was carried out. Data analysis was carried out within the Isochema HISorp 2019 software and exported into Microsoft Excel to present accordingly.

Cc1cc(Nc2cc(N)ncn2)c(=O)n2c1C(=O)NC21CCC2(CC2)CC1 [Pattern 11]
XRPD post storage at 40° C./75% RH [1]: 7 days: Pattern 11 + extra peaks (not
form conversion in competitive slurries (in words) [2]: no conversion of Pattern 11 to Pattern 3
form under ambient conditions (XRPD after ambient overnight) [3]: stable at ambient conditions; also recorded: stable at room temperature
stability to storage at 40° C./75% RH (in words) ([4]; 40° C./75% RH (elevated temperature and humidity)): reasonable stability; also recorded: good stability
XRPD form after storage at 40° C./75% RH, 3 days ([4]; 40° C./75% RH, 3 days): 3 days: No change in form-Pattern 11
Static storage 40° C./75% RH, form ([4]; 40° C./75% RH, 10 days): form and purity was found to stable
Static storage 40° C./75% RH, purity ([4]; 40° C./75% RH, 10 days): Purity: 98.0%
Static storage 40° C./75% RH, form ([4]; 40° C./75% RH, 10 days, listed as 35-1): 10 days: No change in form-Pattern 11
Static storage 25° C./97% RH, form [5]: 10 days: No change in form-Pattern 11
Static storage 25° C./97% RH, purity [5]: Purity: 98.1%
form under ambient conditions (XRPD after ambient overnight) [6]: Pattern 11
Solubility FaSSGF ([7]; FaSSGF, 25° C./24 h, listed as 35-1): FaSSGF-0.078 mg/mL
solubility at 24 h ([7]; FaSSIF, fassif, FaSSIF, 25° C./24 h, read-out: Solubility FaSSIF): 1.4 µg/mL (≈ 3.82 µM)
solubility at 24 h ([7]; FeSSIF, fessif, FeSSIF, 25° C./24 h, read-out: Solubility FeSSIF): 4 µg/mL (≈ 10.9 µM)
Solubility pH 2.0 ([7]; pH 2.0 buffer, 25° C./24 h, listed as 35-1): pH 2.0-0.052 mg/mL
solubility at 24 h ([7]; pH 7.4 buffer, pH 7.4, aqueous buffer, pH 7.4 buffer, 25° C./24 h, read-out: Solubility pH 7.4): 1 µg/mL (≈ 2.73 µM)
solubility in simulated fluids and buffers (in words) ([7]; simulated media and buffers): practically insoluble
hygroscopicity (in words) [8]: only slightly hygroscopic
GVS reversible water uptake 0-90% RH [8]: 0.3 wt %
GVS reversible water uptake 0-90% RH ([8]; listed as 35-1): 0.3 wt % reversible water uptake 0-90% RH with a
Post GVS XRPD form [8]: remained Pattern 11
Post GVS XRPD form ([8]; listed as 35-1): Post GVS XRPD: Pattern 11 + peak at 7.7°
hygroscopicity (in words) ([8]; listed as Structure (I) Pattern 11): only slightly hygroscopic
